{"source": "paper PMC6451005", "about": "“PCC0208027, a novel tyrosine kinase inhibitor, inhibits tumor growth of NSCLC by targeting EGFR and HER2 aberrations” (Scientific Reports, 2019)", "key": {"[1]": {"test_system": "NCI-H1975 cells", "test": "Cell growth inhibition assay (MTT)", "format": "cell-based", "settings": "Homo sapiens, NCI-H1975, 72 h, read-out: IC50 cell viability", "method": "(§1) Human NSCLC cells NCI-H1975, HCC827, Calu-3 and A549were obtained from the Cell Culture Center of the Institute of Basic Medical Sciences, Chinese Academy of Medical Sciences. NCI-H1781 cell line was purchased from Cobioer Biosciences Co., Ltd. With the exception of Calu-3, all cell lines were cultured in RPMI-1640 medium (Gibco, USA) supplemented with 10% fetal bovine serum (FBS) (Gibco, USA). Calu-3 was maintained in Minimum Essential Medium (MEM) supplemented with 10% FBS (Gibco, USA), 5% 100 mM Sodium Pyruvate (Gibco, USA), and 5% Non-Essential Amino Acids Solution (NEAA; Gibco, USA). All cells were incubated at 37 °C with 5% CO2 in air.\n(§2) According to the previous report, 5 × 10^3 cells/100 μL were seeded in culture medium in every well in a 96-well plate for 24 hours. […] After 72 h of treatment, MTT (Beyotime Biotechnology, China) was added at a final concentration of […] and incubated for 3 hours. Following that, DMSO was used to dissolve the formazan product and the Molecular Devices SpectraMax M5 microplate reader (Molecular Devices, USA) was used to measure absorbance at 570 nm and IC50 was calculated."}, "[2]": {"test_system": "Calu-3 cells", "test": "Cell growth inhibition assay (MTT)", "format": "cell-based", "settings": "Homo sapiens, Calu-3, 72 h, read-out: IC50 cell viability", "method": "as §1, §2"}, "[3]": {"test_system": "NCI-H1781 cells", "test": "Cell growth inhibition assay (MTT)", "format": "cell-based", "settings": "Homo sapiens, NCI-H1781, 72 h, read-out: IC50 cell viability", "method": "as §1, §2"}, "[4]": {"test_system": "HCC827 xenograft", "test": "Nude mouse xenograft model", "settings": "for number of p-EGFR and Ki67 positive cells in tumor tissues: HCC827 xenograft model, IHC, vs control group; for Body weight (g) Begin / Body weight (g) End: HCC827 xenograft", "experimental": "(§4) HCC827, NCI-H1975, and Calu-3 cells were resuspended in serum-free culture medium and mixed in a 1:1 ratio with Matrigel (BD Biosciences, USA) before subcutaneous injection at the right scapula of each animal (4 × 10^6 cells/mouse). The mice were randomized into groups when the average tumor volume reached 100–200 mm^3. […] The inhibition rate (IR) of tumor growth was calculated using the following equation: IR (%) = (A − B)/A × 100, where A and B are the mean tumor weights of the vehicle control and treatment groups, respectively."}, "[5]": {"test_system": "NCI-H1975 xenograft", "test": "Nude mouse xenograft model", "settings": "for Body weight (g) Begin / IR (%) inhibition rate of tumor growth (tumor weight) / Body weight (g) End: NCI-H1975 xenograft; for IR (%) inhibition rate of tumor growth (tumor weight): 15 days", "experimental": "as §4"}, "[6]": {"test_system": "HCC827 cells", "test": "Western blot assay", "format": "cell-based, Human", "settings": "24 h, Western blotting", "method": "(§3) The BCA reagent kit (Beyotime Biotechnology) was used to measure protein content. The cell extracts (50 μg protein) were loaded onto a 4–20% ExpressPlus™ PAGE pre-cast gel (GenScript, China) for electrophoresis before transferring to a PVDF membrane. The membranes were blocked with 5% skimmed milk (prepared using Tris-buffered saline containing 0.05% Tween-20) before incubation with primary antibodies at 4 °C overnight. The membranes were then incubated with HRP-conjugated secondary antibodies at room temperature. The Alphaview SA system and software (version 3.4.0, ProteinSimple, USA) was used for quantitative analysis of the optical density of the bands."}, "[7]": {"test_system": "A549 cells", "test": "Cell growth inhibition assay (MTT)", "format": "cell-based, Human", "settings": "Homo sapiens, A549, 72 h, read-out: IC50 cell viability", "method": "as §1, §2"}, "[8]": {"test_system": "Calu-3 xenograft", "test": "Nude mouse xenograft model", "experimental": "as §4"}, "[9]": {"test_system": "HCC827 cells", "test": "Cell growth inhibition assay (MTT)", "format": "cell-based", "settings": "Homo sapiens, HCC827, 72 h, read-out: IC50 cell viability", "experimental": "Human NSCLC cells NCI-H1975, HCC827, Calu-3 and A549were obtained from the Cell Culture Center of the Institute of Basic Medical Sciences, Chinese Academy of Medical Sciences. […] Calu-3 was maintained in Minimum Essential Medium (MEM) supplemented with 10% FBS (Gibco, USA), 5% 100 mM Sodium Pyruvate (Gibco, USA), and 5% Non-Essential Amino Acids Solution (NEAA; Gibco, USA). All cells were incubated at 37 °C with 5% CO2 in air.\nAccording to the previous report[29], 5 × 10^3 cells/100 μL were seeded in culture medium in every well in a 96-well plate for 24 hours. […] After 72 h of treatment, MTT (Beyotime Biotechnology, China) was added at a final concentration of 5 mg/ml and incubated for 3 hours. Following that, DMSO was used to dissolve the formazan product and the Molecular Devices SpectraMax M5 microplate reader (Molecular Devices, USA) was used to measure absorbance at 570 nm and IC50 was calculated."}, "[10]": {"test_system": "NCI-H1975 cells", "test": "Western blot assay", "format": "cell-based, Human", "settings": "24 h, Western blotting", "method": "as §3"}}, "note": "Marks after values point to notes of the source that are not given here.", "data": [{"smiles": "C#Cc1cccc(Nc2ncnc3cc(OCCOC)c(OCCOC)cc23)c1", "note": "[Erlotinib]", "values": [{"measurement": "IC50", "setting": "[1]", "result": "> 1000", "unit": "nM"}, {"measurement": "IC50", "setting": "[2]", "result": "> 1000", "unit": "nM"}, {"measurement": "IC50", "setting": "[3]", "result": "> 1000", "unit": "nM"}, {"measurement": "number of p-EGFR and Ki67 positive cells in tumor tissues", "setting": "[4]", "result": "strongly decreased"}, {"measurement": "decrease of body weight of animals", "setting": "[4]; HCC827 xenograft models", "result": "more than 20%"}, {"measurement": "Body weight (g) Begin", "setting": "[4]; 100 mg/kg/day group", "result": "17.65 ± 0.95", "unit": "g"}, {"measurement": "Body weight (g) End", "setting": "[4]; 100 mg/kg/day oral", "result": "13.82 ± 0.75", "unit": "g"}, {"measurement": "tumor growth (in words)", "setting": "[5]; NCI-H1975 xenograft models, vs. control group", "result": "did not inhibit tumor growth"}, {"measurement": "Body weight (g) Begin", "setting": "[5]; 100 mg/kg/day group", "result": "16.63 ± 1.02", "unit": "g"}, {"measurement": "IR (%) inhibition rate of tumor growth (tumor weight)", "setting": "[5]; 100 mg/kg/day oral", "result": 29.78, "unit": "%"}, {"measurement": "Body weight (g) End", "setting": "[5]; 100 mg/kg/day oral", "result": "14.54 ± 1.10", "unit": "g"}, {"measurement": "Phosphorylation of EGFR and its downstream AKT and ERK", "setting": "[6]", "result": "inhibited"}, {"measurement": "IC50", "setting": "[7]", "result": "> 1000", "unit": "nM"}]}, {"smiles": "C=CC(=O)Nc1cc(Nc2nccc(-c3cn(C)c4ccccc34)n2)c(OC)cc1N(C)CCN(C)C", "note": "[Osimertinib]", "values": [{"measurement": "IC50", "setting": "[1]", "result": "[…]"}, {"measurement": "IC50", "setting": "[2]", "result": "470 ± 7.3", "unit": "nM"}, {"measurement": "IC50", "setting": "[3]", "result": "842 ± 34", "unit": "nM"}, {"measurement": "number of p-EGFR and Ki67 positive cells in tumor tissues", "setting": "[4]", "result": "strongly decreased"}, {"measurement": "Body weight (g) Begin", "setting": "[4]; 2.5 mg/kg/day group", "result": "17.57 ± 1.03", "unit": "g"}, {"measurement": "Body weight (g) End", "setting": "[4]; 2.5 mg/kg/day oral", "result": "19.13 ± 0.78", "unit": "g"}, {"measurement": "IR (%) inhibition rate of tumor growth (tumor weight)", "setting": "[4]; mouse, in vivo, po, 2.5 mg/kg/day", "result": "91.19^*** %"}, {"measurement": "tumor growth (in words)", "setting": "[8]; Calu-3 xenograft models, vs. control group", "result": "did not show any significant inhibitory activity"}, {"measurement": "Body weight (g) Begin", "setting": "[8]; Calu-3 xenograft, 5 mg/kg/day group, begin", "result": "17.42 ± 0.82", "unit": "g"}, {"measurement": "IR (%) inhibition rate of tumor growth (tumor weight)", "setting": "[8]; Calu-3 xenograft, 5 mg/kg/day oral, 15 days", "result": 20.21, "unit": "%"}, {"measurement": "Body weight (g) End", "setting": "[8]; Calu-3 xenograft, 5 mg/kg/day oral, end", "result": "18.24 ± 0.78", "unit": "g"}, {"measurement": "IC50", "setting": "[9]", "result": "1.09 ± 0.22", "unit": "nM"}, {"measurement": "number of p-EGFR and Ki67 positive cells in tumor tissues", "setting": "[5]; NCI-H1975 xenograft model, IHC", "result": "strongly decreased"}, {"measurement": "Body weight (g) Begin", "setting": "[5]; 10 mg/kg/day group", "result": "16.55 ± 0.82", "unit": "g"}, {"measurement": "IR (%) inhibition rate of tumor growth (tumor weight)", "setting": "[5]; 10 mg/kg/day oral", "result": "98.60^*** %"}, {"measurement": "Body weight (g) End", "setting": "[5]; 10 mg/kg/day oral", "result": "16.23 ± 1.31", "unit": "g"}, {"measurement": "Phosphorylation of EGFR and its downstream AKT and ERK", "setting": "[6]", "result": "inhibited"}, {"measurement": "EGFR signaling", "setting": "[10]", "result": "inhibited"}, {"measurement": "IC50", "setting": "[7]", "result": "> 1000", "unit": "nM"}]}]}
